Experimental data as given in patent US20170165317A1, “METHOD FOR MITIGATING OR ALLEVIATING SYNAPTIC AND COGNITIVE DEFICITS” (Trustees of Dartmouth College, priority 2013, published 2017).

System: APP/PS1 mice
Assay: Auditory-cued fear conditioning (hippocampal-independent) after i.c.v. infusion
Assay type: in vivo, mouse
Conditions: wild-type vs APP/PS1 mice, with or without VO-OHpic
Description: APP/PS1 and wild-type mice were anesthetized with isofluorane, and i.c.v. delivery cannulas (brain alzet kit III) were implanted with a stereotaxic frame (KOPF Instruments) at the following coordinates according to the bregma: AP, −0.5 mm; ML, 1 mm; and DV, −2.2 mm. Osmotic minipumps (Alzet) were filled with artificial cerebrospinal fluid (aCSF) with or without PTEN inhibitor VO-OHpic (2.5 μM) and equilibrated in 0.9% NaCl at 37° C. for 48 hours. They were attached to the i.c.v. cannula tubing and subcutaneously implanted at the back. After 21 days, behavioral testing was started as described herein. […]
Fear conditioning. […] The animals' behavior was scored by an observer blind to the treatment condition. Using a time-sampling procedure every 2 seconds, each mouse was scored blindly as either freezing or active at the instant the sample was taken. […]
It was posited that if early Aβ-induced cognitive impairment results from a general synaptic bias toward LTD events (Selkoe (2002) Science 298:789-791), dampening this form of synaptic plasticity might prevent cognitive decay. Therefore, it was determined whether in vivo inhibition of PTEN, a lipid phosphatase that is involved in LTD (Jurado, et al. (2010) EMBO J. 29:2827-2840), would rescue cognitive deficits in APP/PS1 mice. […]

## O=C(O)c1ncccc1O.O=C(O)c1ncccc1O.[O]=[V][O-] [VO-OHpic]
  auditory-cued fear conditioning (percentage freezing to the tone): did not show significant difference
